These results are taken from ChEMBL document CHEMBL1641446, “Novel pyrrolo[2,1-f][1,2,4]triazin-4-amines: Dual inhibitors of EGFR and HER2 protein tyrosine kinases” (Bioorg Med Chem Lett, 2011).

Where only a bound is given, the exact number is not on record here.

Data set [1] has as its system NCI-N87. Briefly: Antiproliferative activity against human NCI-N87 cells. The data set is classed as functional, cell-based.
Another data set concerns A2780. Briefly: Antiproliferative activity against human A2780 cells. The data set is classed as functional, cell-based.
Data set [2] has as its target Receptor tyrosine-protein kinase erbB-2 (Homo sapiens) (UniProt P04626). Briefly: Inhibition of HER2.
The target in data set [3] is Epidermal growth factor receptor (Homo sapiens) (UniProt P00533). As to the kind of experiment: Inhibition of EGFR.
The nature of data set [4]: Antitumor activity against human GEO cells xenografted in po dosed athymic mouse assessed as minimum effective dose. To be noted: read-out: MED. It is filed as functional.
Data set [5] in a line: Drug level in BALB/c mouse at 15 mg/kg, po after 3 hrs. To be noted: in vivo, read-out: Drug uptake. On the set-up: dose 15 mg/kg, route oral. The data set is classed as ADME, organism-based.
Data set [6] can be described thus: Drug level in BALB/c mouse at 15 mg/kg, po after 24 hrs. It is filed as ADME, organism-based. The settings on record: in vivo, read-out: Drug uptake. On the set-up: dose 15 mg/kg, route oral.
The nature of data set [7]: AUC ( 0 to 24 hrs) in BALB/c mouse at 15 mg/kg, po. The data set is classed as ADME, organism-based. On the set-up: time < 24 hr, dose 15 mg/kg, route oral. The settings on record: plasma.
Data set [8] has as its target Tyrosine-protein kinase Lck (Homo sapiens, UniProt P06239). Briefly: Inhibition of LCK.
The target of data set [9] is Vascular endothelial growth factor receptor 2 (Homo sapiens, UniProt P35968). As to the kind of experiment: Inhibition of KDR.
Data set [10] in a line: Fraction unbound in BALB/c mouse serum at 10 uM by equilibrium dialysis. The data set is classed as ADME, cell-free.
Data set [11] can be described thus: Cmax in BALB/c mouse at 50 mg/kg, po. It is filed as ADME, organism-based. On the set-up: dose 50 mg/kg, route oral. The settings on record: in vivo.
Data set [12] is described as follows: Drug level in BALB/c mouse at 240 mg/kg, po after 3 hrs. On the set-up: dose 240 mg/kg, route oral. It is filed as ADME, organism-based. The settings on record: in vivo, read-out: Drug uptake.
A short description of data set [13]: Drug level in BALB/c mouse at 240 mg/kg, po after 24 hrs. The data set is classed as ADME, organism-based. Set-up: dose 240 mg/kg, route oral. To be noted: in vivo, read-out: Drug uptake.
Data set [14] is described as follows: AUC ( 0 to 24 hrs) in BALB/c mouse at 240 mg/kg, po. It is filed as ADME, organism-based. Set-up: time < 24 hr, dose 240 mg/kg, route oral. To be noted: plasma.
Data set [15] concerns NCI-N87. As to the kind of experiment: Antitumor activity against human NCI-N87 cells xenografted in po dosed athymic mouse assessed as minimum effective dose administered Q1D for 14 days. To be noted: 336 h, read-out: MED.
Data set [16] is described as follows: Drug level in BALB/c mouse at 50 mg/kg, po after 4 hrs. The data set is classed as ADME, organism-based. Set-up: dose 50 mg/kg, route oral. To be noted: in vivo, read-out: Drug uptake.
[17] abbreviates: Homo sapiens, NCI-N87, read-out: IC50.
Setting [18] is: Homo sapiens, A2780, read-out: IC50.

Chain of Epidermal growth factor receptor (Homo sapiens) (P00533 whole entry, looked up): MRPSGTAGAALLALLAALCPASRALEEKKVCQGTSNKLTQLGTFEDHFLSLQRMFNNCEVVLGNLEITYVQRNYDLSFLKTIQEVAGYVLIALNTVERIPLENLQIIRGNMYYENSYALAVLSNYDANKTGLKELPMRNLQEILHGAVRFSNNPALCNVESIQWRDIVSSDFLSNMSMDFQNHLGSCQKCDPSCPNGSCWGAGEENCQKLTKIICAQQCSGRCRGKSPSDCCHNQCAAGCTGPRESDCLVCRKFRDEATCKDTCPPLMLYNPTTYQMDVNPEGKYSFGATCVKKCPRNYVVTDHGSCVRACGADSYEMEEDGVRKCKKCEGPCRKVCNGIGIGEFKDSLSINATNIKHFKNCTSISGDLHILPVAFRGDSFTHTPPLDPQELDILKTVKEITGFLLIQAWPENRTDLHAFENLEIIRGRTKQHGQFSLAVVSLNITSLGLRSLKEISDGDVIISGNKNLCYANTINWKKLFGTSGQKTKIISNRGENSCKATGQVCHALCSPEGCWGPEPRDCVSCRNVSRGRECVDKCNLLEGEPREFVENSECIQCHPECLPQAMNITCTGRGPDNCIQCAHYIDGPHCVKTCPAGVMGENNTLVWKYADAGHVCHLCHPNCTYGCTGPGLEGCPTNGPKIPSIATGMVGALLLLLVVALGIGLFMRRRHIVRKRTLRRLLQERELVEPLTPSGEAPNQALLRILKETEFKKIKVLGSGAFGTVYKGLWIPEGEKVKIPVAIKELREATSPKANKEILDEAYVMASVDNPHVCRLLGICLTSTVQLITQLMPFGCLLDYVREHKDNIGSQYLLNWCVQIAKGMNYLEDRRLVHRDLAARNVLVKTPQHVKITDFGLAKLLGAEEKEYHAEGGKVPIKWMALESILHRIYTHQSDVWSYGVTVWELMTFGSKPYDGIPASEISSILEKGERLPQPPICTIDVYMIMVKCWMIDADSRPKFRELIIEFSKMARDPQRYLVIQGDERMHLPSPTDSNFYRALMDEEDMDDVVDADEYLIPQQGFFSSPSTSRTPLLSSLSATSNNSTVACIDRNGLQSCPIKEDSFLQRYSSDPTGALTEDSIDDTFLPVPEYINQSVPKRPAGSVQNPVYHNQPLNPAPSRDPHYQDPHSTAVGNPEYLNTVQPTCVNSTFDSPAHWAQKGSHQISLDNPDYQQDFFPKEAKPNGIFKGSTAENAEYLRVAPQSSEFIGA
Chain of Receptor tyrosine-protein kinase erbB-2 (Homo sapiens) (P04626 whole entry, looked up): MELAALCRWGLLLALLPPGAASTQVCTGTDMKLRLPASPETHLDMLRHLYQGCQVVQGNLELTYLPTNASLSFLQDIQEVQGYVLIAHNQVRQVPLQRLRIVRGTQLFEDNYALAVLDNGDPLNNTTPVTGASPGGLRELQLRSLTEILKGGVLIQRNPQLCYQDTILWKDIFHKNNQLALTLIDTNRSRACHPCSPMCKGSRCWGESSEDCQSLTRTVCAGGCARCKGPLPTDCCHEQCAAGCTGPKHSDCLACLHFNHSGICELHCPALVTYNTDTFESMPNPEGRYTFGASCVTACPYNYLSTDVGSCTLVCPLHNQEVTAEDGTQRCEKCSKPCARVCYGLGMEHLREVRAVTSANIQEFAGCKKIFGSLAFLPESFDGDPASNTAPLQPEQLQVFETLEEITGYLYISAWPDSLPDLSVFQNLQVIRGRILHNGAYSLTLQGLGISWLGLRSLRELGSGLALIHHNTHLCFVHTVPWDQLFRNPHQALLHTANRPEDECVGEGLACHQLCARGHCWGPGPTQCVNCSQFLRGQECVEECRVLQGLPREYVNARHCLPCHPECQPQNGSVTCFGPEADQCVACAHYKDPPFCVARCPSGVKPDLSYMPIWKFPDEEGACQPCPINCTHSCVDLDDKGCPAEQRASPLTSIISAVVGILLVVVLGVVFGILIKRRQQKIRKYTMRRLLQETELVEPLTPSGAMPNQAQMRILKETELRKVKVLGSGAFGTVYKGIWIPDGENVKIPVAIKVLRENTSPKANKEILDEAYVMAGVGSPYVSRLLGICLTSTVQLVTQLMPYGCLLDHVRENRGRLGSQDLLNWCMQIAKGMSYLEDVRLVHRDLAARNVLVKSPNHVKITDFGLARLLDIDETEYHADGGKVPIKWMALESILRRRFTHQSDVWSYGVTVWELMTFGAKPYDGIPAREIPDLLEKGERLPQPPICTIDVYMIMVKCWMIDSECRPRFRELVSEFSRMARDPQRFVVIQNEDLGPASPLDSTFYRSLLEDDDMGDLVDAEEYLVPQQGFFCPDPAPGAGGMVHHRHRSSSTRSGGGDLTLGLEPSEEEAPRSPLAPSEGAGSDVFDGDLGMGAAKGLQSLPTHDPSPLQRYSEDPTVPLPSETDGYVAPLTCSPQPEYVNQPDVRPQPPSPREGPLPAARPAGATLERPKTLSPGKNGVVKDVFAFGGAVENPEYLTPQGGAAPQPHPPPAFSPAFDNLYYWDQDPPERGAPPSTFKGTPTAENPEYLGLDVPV
Chain of Vascular endothelial growth factor receptor 2 (P35968 whole entry): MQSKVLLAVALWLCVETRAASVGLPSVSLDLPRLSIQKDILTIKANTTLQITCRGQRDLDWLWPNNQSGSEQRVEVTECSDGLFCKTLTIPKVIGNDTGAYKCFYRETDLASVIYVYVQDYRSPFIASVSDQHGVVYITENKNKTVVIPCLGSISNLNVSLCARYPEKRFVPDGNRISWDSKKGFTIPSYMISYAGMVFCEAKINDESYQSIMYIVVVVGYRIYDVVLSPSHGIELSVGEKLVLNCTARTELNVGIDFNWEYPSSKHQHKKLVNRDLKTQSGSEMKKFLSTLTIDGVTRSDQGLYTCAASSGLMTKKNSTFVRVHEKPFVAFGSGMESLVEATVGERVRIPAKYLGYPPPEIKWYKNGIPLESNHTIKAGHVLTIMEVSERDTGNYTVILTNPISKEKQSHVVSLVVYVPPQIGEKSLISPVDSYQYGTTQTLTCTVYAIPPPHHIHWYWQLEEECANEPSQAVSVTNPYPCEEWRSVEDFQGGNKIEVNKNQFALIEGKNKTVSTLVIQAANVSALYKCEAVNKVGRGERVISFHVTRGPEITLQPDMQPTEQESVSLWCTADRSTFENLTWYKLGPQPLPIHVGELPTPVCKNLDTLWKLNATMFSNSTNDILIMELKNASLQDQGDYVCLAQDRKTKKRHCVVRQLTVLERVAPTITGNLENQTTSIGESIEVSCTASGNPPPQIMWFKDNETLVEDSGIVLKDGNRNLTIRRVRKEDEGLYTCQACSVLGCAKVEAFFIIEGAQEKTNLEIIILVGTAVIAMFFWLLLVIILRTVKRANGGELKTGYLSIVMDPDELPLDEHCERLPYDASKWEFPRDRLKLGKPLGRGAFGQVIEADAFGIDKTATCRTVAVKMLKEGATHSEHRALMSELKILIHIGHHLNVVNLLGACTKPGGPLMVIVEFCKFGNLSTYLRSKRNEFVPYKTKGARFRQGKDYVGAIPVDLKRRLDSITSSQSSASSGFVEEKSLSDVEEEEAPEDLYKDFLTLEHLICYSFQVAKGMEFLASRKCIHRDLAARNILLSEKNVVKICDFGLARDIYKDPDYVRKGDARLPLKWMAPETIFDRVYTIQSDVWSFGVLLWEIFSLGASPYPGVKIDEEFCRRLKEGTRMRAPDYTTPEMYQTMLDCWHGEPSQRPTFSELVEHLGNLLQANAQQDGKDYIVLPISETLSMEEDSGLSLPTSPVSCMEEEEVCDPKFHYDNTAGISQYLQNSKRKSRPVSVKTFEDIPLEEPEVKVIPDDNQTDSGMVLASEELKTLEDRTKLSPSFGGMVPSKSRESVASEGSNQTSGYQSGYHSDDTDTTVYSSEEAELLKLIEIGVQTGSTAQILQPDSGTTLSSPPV
Chain of Tyrosine-protein kinase Lck (P06239 whole entry): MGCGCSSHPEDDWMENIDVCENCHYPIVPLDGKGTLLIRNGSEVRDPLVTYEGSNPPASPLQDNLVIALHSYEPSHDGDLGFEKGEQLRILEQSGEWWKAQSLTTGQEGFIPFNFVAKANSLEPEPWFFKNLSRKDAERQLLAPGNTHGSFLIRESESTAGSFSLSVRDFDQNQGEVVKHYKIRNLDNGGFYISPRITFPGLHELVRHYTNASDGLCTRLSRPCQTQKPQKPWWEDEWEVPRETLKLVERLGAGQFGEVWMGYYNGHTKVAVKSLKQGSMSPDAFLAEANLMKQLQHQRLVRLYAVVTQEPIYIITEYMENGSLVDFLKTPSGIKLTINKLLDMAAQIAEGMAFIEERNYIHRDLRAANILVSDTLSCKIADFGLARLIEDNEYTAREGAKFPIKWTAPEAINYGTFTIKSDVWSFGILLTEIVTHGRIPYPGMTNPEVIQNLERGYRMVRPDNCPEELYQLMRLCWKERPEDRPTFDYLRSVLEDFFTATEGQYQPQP

Regarding `Cn1ncc2cc(Nc3ncnn4ccc(COC[C@@H]5CNCCO5)c34)ccc21`, the IC50 entry is “Not Active” with NCI-N87 [1] (nci-n87), “Not Active” in the data set on A2780 (a2780), more than 1000 nM in [2] and more than 1000 nM in [3].

Turning to `Cn1ncc2cc(Nc3ncnn4ccc(CN5CCC(N)CC5)c34)ccc21`, the IC50 entry was “Not Active” with NCI-N87 [1] (nci-n87), “Not Active” with A2780 (a2780), 950 nM in data set [2] and 360 nM in [3].

Take `C#Cc1cccc(Nc2ncnn3ccc(COC[C@@H]4CNCCO4)c23)c1`: the IC50 in the data set with NCI-N87 [1] (setting [17]) was 4400 nM; in the data set on A2780 (setting [18]), 3900 nM; in data set [2], 670 nM; in data set [3], 20 nM.

As for `C#Cc1cccc(Nc2ncnn3ccc(CN4CCC(N)CC4)c23)c1`, the IC50 was found to be 120 nM in the data set on NCI-N87 [1] (setting [17]), 2300 nM with A2780 (setting [18]), 10 nM in data set [2] and 7 nM in data set [3]. Moreover, the minimal effective dose in data set [4] came out at 15 mg/kg.

As to `NC1CCN(Cc2ccn3ncnc(Nc4ccccc4)c23)CC1`, the IC50 turned out to be 140 nM in the data set with NCI-N87 [1] (setting [17]) and 3700 nM in the data set on A2780 (setting [18]).

As to `CC(C)Nc1ncnn2ccc(CN3CCC(N)CC3)c12`, the results for the IC50 in data set [2] and in data set [3] were more than 1000 nM and 880 nM, respectively.

For `Cc1ccccc1Nc1ncnn2ccc(CN3CCC(N)CC3)c12`, the IC50 in the data set with NCI-N87 [1] (setting [17]) was 3300 nM; in the data set on A2780 (setting [18]), more than 5000 nM; in [2], 660 nM; in data set [3] it was 20 nM.

For `Cc1cccc(Nc2ncnn3ccc(CN4CCC(N)CC4)c23)c1`, the IC50 in the data set on NCI-N87 [1] (setting [17]) is 140 nM; with A2780 (setting [18]), more than 5000 nM; in data set [2] it was 20 nM; in data set [3] it was 5 nM. In addition, the minimal effective dose in [4] stood at 60 mg/kg.

As to `Cc1ccc(Nc2ncnn3ccc(CN4CCC(N)CC4)c23)cc1`, the IC50 was 790 nM in the data set with NCI-N87 [1] (setting [17]), more than 5000 nM with A2780 (setting [18]), 50 nM in data set [2] and 6 nM in [3].

`NC1CCN(Cc2ccn3ncnc(Nc4cccc(F)c4)c23)CC1`: the IC50 in the data set on NCI-N87 [1] (setting [17]) was 280 nM; in the data set on A2780 (setting [18]) it was more than 5000 nM; in data set [2] it was 32 nM; in data set [3], 6 nM.

Consider `NC1CCN(Cc2ccn3ncnc(Nc4cccc(Cl)c4)c23)CC1`, for which the IC50 in the data set on NCI-N87 [1] (setting [17]) is 60 nM; in the data set on A2780 (setting [18]), more than 5000 nM; in data set [2] it was 9 nM; in data set [3], 4 nM. For the same compound, the minimal effective dose in [4] worked out at 60 mg/kg.

For the compound `NC1CCN(Cc2ccn3ncnc(Nc4cccc(Br)c4)c23)CC1`, the IC50 worked out at 50 nM with NCI-N87 [1] (setting [17]), 2600 nM with A2780 (setting [18]), 6 nM in data set [2] and 4 nM in data set [3].

For `NC1CCN(Cc2ccn3ncnc(Nc4cc(Cl)cc(Cl)c4)c23)CC1`, the IC50 with NCI-N87 [1] (setting [17]) is 3360 nM; in the data set with A2780 (setting [18]) it was 4000 nM; in [2] it was 130 nM; in data set [3], 34 nM.

As for `NC1CCN(Cc2ccn3ncnc(Nc4ccc(F)c(Cl)c4)c23)CC1`, the IC50 was 120 nM in the data set on NCI-N87 [1] (setting [17]); more than 5000 nM with A2780 (setting [18]); 370 nM in data set [8]; 110 nM in data set [9]; 10 nM in data set [2]; 6 nM in [3]. The concentration at 3 h in data set [5] is 7.2 µM. Besides, the concentration at 24 h in data set [6] was 6.8 µM. This compound displayed an AUC(0-t) at 24 h in [7] of 160 µM·h. The minimal effective dose in data set [4] was 15 mg/kg. Also, in [10], the fraction unbound at 10 µM is 0.012.

Take `COc1ccc(Nc2ncnn3ccc(CN4CCC(N)CC4)c23)cc1Cl`: the IC50 was 1210 nM with NCI-N87 [1] (setting [17]), more than 5000 nM in the data set on A2780 (setting [18]), 210 nM in data set [2] and 70 nM in data set [3].

With `Fc1cccc(Cn2ncc3cc(Nc4ncnn5ccc(COC[C@@H]6CNCCO6)c45)ccc32)c1`, in data set [11], the concentration peaked (Cmax) at 9.5 µM. Also, in data set [12], the concentration at 3 h is 5.8 µM. For the same compound, the concentration at 24 h in data set [13] was determined as 0.1 µM. Besides, the AUC(0-t) at 24 h in data set [14] is 100 µM·h. The compound also yielded a fraction unbound at 10 µM in [10] of 0.026. Moreover, the minimal effective dose in the data set on NCI-N87 [15] turned out to be 60 mg/kg.

As to `NC1CCN(Cc2ccn3ncnc(Nc4ccc5c(cnn5Cc5cccc(F)c5)c4)c23)CC1`, the Cmax in data set [11] was determined as 4.5 µM. For the same compound, the concentration at 4 h in [16] stood at 2.7 µM. In [3], this compound registered a half-inhibitory concentration (IC50) of 22 nM. Besides, the minimal effective dose in the data set on NCI-N87 [15] was found to be 60 mg/kg.

In the case of `Cc1c(NC(=O)OC[C@@H]2COCCN2)cn2ncnc(Nc3ccc4c(cnn4Cc4cccc(F)c4)c3)c12` [AC-480], the minimal effective dose (in [4]; with NCI-N87 [15]) was 120 mg/kg in each case.
